Laboratory results reported in the supplement of paper PMC13380429.

Experiments:
U2OS [1] = assay: drug sensitivity score (DSS) for viability; higher = more toxic; extreme values may be limits of the assay; conditions: 72 h
Calu-3 [2] = assay: as above; conditions: 72 h
Caco-2 [3] = assay: as above; conditions: 72 h
HepG2 [4] = assay: as above; conditions: 72 h
Vero E6 [5] = assay: as above; conditions: 72 h
[6] = test system: A549-ACE2 infected with SARS-CoV-2; assay: SARS-CoV-2 infection rate relative to DMSO; higher = more infection; conditions: 24 h
[7] = test system: A549-ACE2 infected with SARS-CoV-2; assay: cell count relative to DMSO; higher = less toxic; conditions: 24 h
[8] = test system: A549-ACE2 infected with SARS-CoV-2; assay: morphology score (similarity to uninfected cells); higher = more like uninfected cells; conditions: 24 h
U2OS [9] = assay: relative viability EC50 (midpoint between 100% and the lowest measured viability); higher = less toxic; conditions: 72 h
Calu-3 [10] = assay: as above; conditions: 72 h
Caco-2 [11] = assay: as above; conditions: 72 h
HepG2 [12] = assay: as above; conditions: 72 h
Vero E6 [13] = assay: as above; conditions: 72 h
A549-ACE2 [14] = assay: phospholipidosis EC50; higher = less potent phospholipidosis inducer
A549-ACE2 [15] = assay: drug-induced phospholipidosis relative to tamoxifen; higher = more phospholipidosis
U2OS [16] = assay: cell viability relative to DMSO; higher = less toxic; conditions: 72 h
Calu-3 [17] = assay: as above; conditions: 72 h
Caco-2 [18] = assay: as above; conditions: 72 h
HepG2 [19] = assay: as above; conditions: 72 h
Vero E6 [20] = assay: as above; conditions: 72 h

OCCN1CCN(CC/C=C2/c3ccccc3Sc3ccc(C(F)(F)F)cc32)CC1 [flupentixol]
Conditions	drug sensitivity score	relative viability EC50 [µM]
Caco-2 [3]	0	–
Caco-2 [11]	–	> 10
Calu-3 [2]	0.6	–
Calu-3 [10]	–	> 10
HepG2 [4]	0	–
HepG2 [12]	–	> 10
U2OS [1]	0	–
U2OS [9]	–	> 10
Vero E6 [5]	0	–
Vero E6 [13]	–	> 10

Conditions	SARS-CoV-2 infection rate [%]	cell count [%]	cell viability [%]	morphology score	phospholipidosis EC50 [µM]
A549-ACE2 [14], 24 h	–	–	–	–	17
A549-ACE2 [14], 48 h	–	–	–	–	8.95
A549-ACE2 [14], 72 h	–	–	–	–	10.2
Caco-2 [18], 1 nM	–	–	90.3	–	–
Caco-2 [18], 10 nM	–	–	93.7	–	–
Caco-2 [18], 100 nM	–	–	95.2	–	–
Caco-2 [18], 1000 nM	–	–	87.6	–	–
Caco-2 [18], 10000 nM	–	–	92.4	–	–
Calu-3 [17], 1 nM	–	–	85.3	–	–
Calu-3 [17], 10 nM	–	–	87.7	–	–
Calu-3 [17], 100 nM	–	–	106	–	–
Calu-3 [17], 1000 nM	–	–	94.7	–	–
Calu-3 [17], 10000 nM	–	–	87	–	–
HepG2 [19], 1 nM	–	–	97.2	–	–
HepG2 [19], 10 nM	–	–	93.8	–	–
HepG2 [19], 100 nM	–	–	90	–	–
HepG2 [19], 1000 nM	–	–	96.9	–	–
HepG2 [19], 10000 nM	–	–	89.9	–	–
U2OS [16], 1 nM	–	–	99.2	–	–
U2OS [16], 10 nM	–	–	89.9	–	–
U2OS [16], 100 nM	–	–	105	–	–
U2OS [16], 1000 nM	–	–	94.6	–	–
U2OS [16], 10000 nM	–	–	92.1	–	–
Vero E6 [20], 1 nM	–	–	98.1	–	–
Vero E6 [20], 10 nM	–	–	96.9	–	–
Vero E6 [20], 100 nM	–	–	98.1	–	–
Vero E6 [20], 1000 nM	–	–	91.8	–	–
Vero E6 [20], 10000 nM	–	–	93.1	–	–
[6], 0.3 µM	97	–	–	–	–
[6], 3 µM	66	–	–	–	–
[6], 10 µM	17	–	–	–	–
[6], 30 µM	46	–	–	–	–
[7], 0.3 µM	–	107	–	–	–
[7], 3 µM	–	113	–	–	–
[7], 10 µM	–	124	–	–	–
[7], 30 µM	–	96	–	–	–
[8], 0.3 µM	–	–	–	0.2	–
[8], 3 µM	–	–	–	0.62	–
[8], 10 µM	–	–	–	0.88	–
[8], 30 µM	–	–	–	0.36	–

drug-induced phospholipidosis [%], A549-ACE2 [15]
Conditions	0.3 µM	0.833333 µM	3.33333 µM	6.66667 µM	10 µM	30 µM
24 h	4.08	5.01	30.1	43.1	72.8	122
48 h	5.09	0.98	25.8	36.9	80	116
72 h	7.2	2.4	18.4	31.8	74.8	138

CC(C)c1cnn2c(NCc3ccccc3)cc(NCCCCCCN)nc12 [BS-181]
Conditions	drug sensitivity score	relative viability EC50 [µM]
Caco-2 [3]	1.7	–
Caco-2 [11]	–	> 10
Calu-3 [2]	0	–
Calu-3 [10]	–	> 10
HepG2 [4]	0.9	–
HepG2 [12]	–	> 10
U2OS [1]	0	–
U2OS [9]	–	> 10
Vero E6 [5]	0.4	–
Vero E6 [13]	–	> 10

Conditions	SARS-CoV-2 infection rate [%]	cell count [%]	cell viability [%]	morphology score	phospholipidosis EC50 [µM]
A549-ACE2 [14], 24 h	–	–	–	–	15
Caco-2 [18], 1 nM	–	–	101	–	–
Caco-2 [18], 10 nM	–	–	84	–	–
Caco-2 [18], 100 nM	–	–	122	–	–
Caco-2 [18], 1000 nM	–	–	90.2	–	–
Caco-2 [18], 10000 nM	–	–	79	–	–
Calu-3 [17], 1 nM	–	–	100	–	–
Calu-3 [17], 10 nM	–	–	106	–	–
Calu-3 [17], 100 nM	–	–	99.9	–	–
Calu-3 [17], 1000 nM	–	–	115	–	–
Calu-3 [17], 10000 nM	–	–	87.3	–	–
HepG2 [19], 1 nM	–	–	97	–	–
HepG2 [19], 10 nM	–	–	92	–	–
HepG2 [19], 100 nM	–	–	98.1	–	–
HepG2 [19], 1000 nM	–	–	90.3	–	–
HepG2 [19], 10000 nM	–	–	80	–	–
U2OS [16], 1 nM	–	–	102	–	–
U2OS [16], 10 nM	–	–	94.8	–	–
U2OS [16], 100 nM	–	–	101	–	–
U2OS [16], 1000 nM	–	–	96.1	–	–
U2OS [16], 10000 nM	–	–	91	–	–
Vero E6 [20], 1 nM	–	–	98.5	–	–
Vero E6 [20], 10 nM	–	–	97.6	–	–
Vero E6 [20], 100 nM	–	–	99	–	–
Vero E6 [20], 1000 nM	–	–	94.6	–	–
Vero E6 [20], 10000 nM	–	–	86.1	–	–
[6], 0.3 µM	99	–	–	–	–
[6], 3 µM	37	–	–	–	–
[6], 10 µM	9	–	–	–	–
[6], 30 µM	25	–	–	–	–
[7], 0.3 µM	–	102	–	–	–
[7], 3 µM	–	115	–	–	–
[7], 10 µM	–	101	–	–	–
[7], 30 µM	–	47	–	–	–
[8], 0.3 µM	–	–	–	0.12	–
[8], 3 µM	–	–	–	0.87	–
[8], 10 µM	–	–	–	0.93	–
[8], 30 µM	–	–	–	0.26	–

drug-induced phospholipidosis [%], A549-ACE2 [15]
Conditions	0.3 µM	0.833333 µM	3.33333 µM	6.66667 µM	10 µM	30 µM
24 h	0.84	1.04	6.25	11.9	29.1	83.9
48 h	1.54	0.53	4.06	7	14.2	37.6
72 h	2.87	1.74	3.1	5.35	9.65	19.3
